Assay results taken from publication PMC11003488 (Journal of Enzyme Inhibition and Medicinal Chemistry, 2023).
“And” between values parts separate entries of the source, which are not always exact repeats. Identical values can stand only once. Like-named read-outs stand apart in the source and are kept apart here.

What was measured:
[1] = tested on: RPMI-8226; assay: NCI-60 SRB growth inhibition, one-dose and five-dose; format: cell-based; details: Homo sapiens
[2] = tested on: EKVX; assay: as above; format: cell-based; details: Homo sapiens
[3] = tested on: NCI-H23; assay: as above; format: cell-based; details: Homo sapiens
[4] = tested on: HCC-2998; assay: as above; format: cell-based; details: Homo sapiens
[5] = tested on: HCT-116; assay: as above; format: cell-based; details: Homo sapiens
[6] = tested on: HCT-15; assay: as above; format: cell-based; details: Homo sapiens
[7] = tested on: KM12; assay: as above; format: cell-based; details: Homo sapiens
[8] = tested on: SK-MEL-2; assay: as above; format: cell-based; details: Homo sapiens, SK-MEL-2, read-out: percent growth inhibition
[9] = tested on: UACC-257; assay: as above; format: cell-based; details: Homo sapiens
[10] = tested on: OVCAR-3; assay: as above; format: cell-based; details: Homo sapiens
[11] = tested on: OVCAR-8; assay: as above; format: cell-based; details: Homo sapiens, OVCAR-8, read-out: percent growth inhibition
[12] = tested on: ACHN; assay: as above; format: cell-based; details: Homo sapiens
[13] = tested on: CAKI-1; assay: as above; format: cell-based; details: Homo sapiens
[14] = tested on: SN12C; assay: as above; format: cell-based; details: Homo sapiens
[15] = tested on: UO-31; assay: as above; format: cell-based; details: Homo sapiens, UO-31
[16] = tested on: MCF7; assay: as above; format: cell-based; details: Homo sapiens
[17] = tested on: MDA-MB-231/ATCC; assay: as above; format: cell-based; details: Homo sapiens, MDA-MB-231
[18] = tested on: T-47D; assay: as above; format: cell-based; details: Homo sapiens, T47D
[19] = tested on: NCI 60-cell line panel (full panel); assay: NCI-60 SRB growth inhibition, full panel mean / MG-MID; format: cell-based, human; details: for GI50: Homo sapiens, 60 cell
[20] = tested on: Leukaemia cell lines; assay: NCI-60 SRB growth inhibition, subpanel; format: cell-based, human; details: Homo sapiens
[21] = tested on: NSCLC cell lines; assay: NCI-60 SRB growth inhibition, subpanel; format: cell-based, human; details: for GI50: Homo sapiens
[22] = tested on: Colon cancer cell lines; assay: NCI-60 SRB growth inhibition, subpanel; format: cell-based, human; details: for GI50: Homo sapiens
[23] = tested on: CNS cancer cell lines; assay: NCI-60 SRB growth inhibition, subpanel; format: cell-based, human; details: for GI50: Homo sapiens
[24] = tested on: Melanoma cell lines; assay: NCI-60 SRB growth inhibition, subpanel; format: cell-based, human; details: for GI50: Homo sapiens
[25] = tested on: Ovarian cancer cell lines; assay: NCI-60 SRB growth inhibition, subpanel; format: cell-based, human; details: for GI50: Homo sapiens
[26] = tested on: Renal cancer cell lines; assay: NCI-60 SRB growth inhibition, subpanel; format: cell-based, human; details: for GI50: Homo sapiens
[27] = tested on: Prostate cancer cell lines; assay: NCI-60 SRB growth inhibition, subpanel; format: cell-based, human; details: for GI50: Homo sapiens
[28] = tested on: Breast cancer cell lines; assay: NCI-60 SRB growth inhibition, subpanel; format: cell-based, human; details: for GI50: Homo sapiens
[29] = Cytotoxicity towards normal fibroblasts, safety index; format: cell-based, human; details: human, WI-38 normal fibroblast cells
[30] = tested on: WI-38 normal human fibroblast cells; assay: as above; format: cell-based; details: WI-38 versus cancer cell lines
[31] = biological target: Human VEGFR-2 (Homo sapiens, UniProt P35968); assay: VEGFR-2 inhibition assay; format: biochemical
Sequence of Human VEGFR-2 (P35968 20-1356): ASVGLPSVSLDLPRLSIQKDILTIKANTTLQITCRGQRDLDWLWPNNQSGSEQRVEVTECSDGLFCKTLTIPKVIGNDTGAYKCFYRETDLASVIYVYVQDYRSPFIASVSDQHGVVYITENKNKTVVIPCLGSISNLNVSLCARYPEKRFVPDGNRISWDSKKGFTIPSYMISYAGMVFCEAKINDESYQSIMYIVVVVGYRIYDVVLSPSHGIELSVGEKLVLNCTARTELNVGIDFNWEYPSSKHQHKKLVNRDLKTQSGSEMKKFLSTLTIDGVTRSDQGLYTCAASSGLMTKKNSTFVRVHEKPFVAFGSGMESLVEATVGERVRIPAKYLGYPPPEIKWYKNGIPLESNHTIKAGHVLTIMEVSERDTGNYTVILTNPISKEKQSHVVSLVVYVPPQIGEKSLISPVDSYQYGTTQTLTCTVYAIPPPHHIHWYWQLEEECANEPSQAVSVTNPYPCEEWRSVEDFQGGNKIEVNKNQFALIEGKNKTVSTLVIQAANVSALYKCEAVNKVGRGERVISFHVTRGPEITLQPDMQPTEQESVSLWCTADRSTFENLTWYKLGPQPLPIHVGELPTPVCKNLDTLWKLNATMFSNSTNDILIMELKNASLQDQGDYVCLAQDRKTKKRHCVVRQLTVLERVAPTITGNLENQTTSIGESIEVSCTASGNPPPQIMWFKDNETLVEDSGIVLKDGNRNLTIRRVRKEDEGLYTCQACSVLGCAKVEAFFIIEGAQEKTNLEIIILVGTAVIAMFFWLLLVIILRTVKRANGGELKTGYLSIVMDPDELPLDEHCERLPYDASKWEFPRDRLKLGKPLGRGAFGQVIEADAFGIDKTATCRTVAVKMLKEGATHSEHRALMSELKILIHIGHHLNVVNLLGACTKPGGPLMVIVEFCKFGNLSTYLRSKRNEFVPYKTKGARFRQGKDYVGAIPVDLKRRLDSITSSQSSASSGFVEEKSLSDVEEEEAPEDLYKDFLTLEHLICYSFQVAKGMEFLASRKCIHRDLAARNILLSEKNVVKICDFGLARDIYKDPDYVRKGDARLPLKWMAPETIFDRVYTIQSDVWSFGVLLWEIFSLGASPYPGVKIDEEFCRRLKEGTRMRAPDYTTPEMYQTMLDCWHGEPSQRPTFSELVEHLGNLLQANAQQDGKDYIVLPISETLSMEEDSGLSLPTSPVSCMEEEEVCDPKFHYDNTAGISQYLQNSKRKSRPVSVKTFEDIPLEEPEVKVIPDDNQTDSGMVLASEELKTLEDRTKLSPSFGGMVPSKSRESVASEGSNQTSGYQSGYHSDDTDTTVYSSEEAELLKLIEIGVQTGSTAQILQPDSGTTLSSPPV

[32] = tested on: HCT-116 (colon cancer); assay: Apoptosis AV/PI assay by flow cytometry; format: cell-based, human; details: HCT-116, 24 h, IC50 of compound
[33] = tested on: HCT-116 (colon cancer); assay: Cell cycle analysis by PI flow cytometry; format: cell-based, human; details: HCT-116, 24 h, IC50 of compound
[34] = tested on: Caspase-3; assay: Protein level by ELISA assay in HCT-116; format: cell-based, human; details: HCT-116, IC50 of compound, 24 h, vs 0.1% DMSO
[35] = tested on: Bax; assay: Protein level by ELISA assay in HCT-116; format: cell-based, human; details: HCT-116, IC50 of compound, 24 h, vs 0.1% DMSO
[36] = tested on: Caspase-3; assay: Gene expression by RT-qPCR in HCT-116; details: HCT-116, 24 h, IC50 of compound; vs 0.1% DMSO; 2^-ΔΔct
[37] = tested on: Bax; assay: Gene expression by RT-qPCR in HCT-116; details: HCT-116, 24 h
[38] = tested on: TNF-α; assay: Gene expression by RT-qPCR in HCT-116; details: HCT-116, 24 h, IC50 of compound; vs 0.1% DMSO; 2^-ΔΔct
[39] = read-out: percent growth inhibition

O=C(/C=C/c1cccnc1)c1cccc(NCc2ccc(CO)cc2)c1 [Compound 5e, (E)-1–(3-((4-(hydroxymethyl)benzyl)amino)phenyl)-3-(pyridin-3-yl)prop-2-en-1-one]
GI50 ([1]; RPMI-8226): 2.27 µM
inhibition at 10 µM ([1]; RPMI-8226, read-out: percent growth inhibition): 133%
GI50 [2]: 13.7 µM
inhibition at 10 µM [2, 39]: 56.8%
GI50 ([3]; NCI-H23): 12.9 µM
inhibition at 10 µM ([3]; NCI-H23, read-out: percent growth inhibition): 79.3%
GI50 ([4]; HCC 2998): 5.6 µM
inhibition at 10 µM ([4]; HCC 2998, read-out: percent growth inhibition): 190%
GI50 ([5]; HCT-116, HCT-116, five-dose screening): 1.88 µM
inhibition at 10 µM ([5]; HCT-116, read-out: percent growth inhibition): 193%
GI50 ([6]; HCT-15): 3.01 µM
inhibition at 10 µM ([6]; HCT-15, read-out: percent growth inhibition): 132%
GI50 ([7]; KM12): 7.91 µM
inhibition at 10 µM ([7]; KM12, read-out: percent growth inhibition): 189%
inhibition at 10 µM [8]: 17.7%
GI50 ([9]; UACC-257): 14.7 µM
inhibition at 10 µM ([9]; UACC-257, read-out: percent growth inhibition): 61.4%
GI50 ([10]; OVCAR-3): 10.3 µM
inhibition at 10 µM ([10]; OVCAR-3, read-out: percent growth inhibition): 131%
inhibition at 10 µM [11]: 97.2%
GI50 [12]: 8.07 µM
inhibition at 10 µM [12, 39]: 81.6%
GI50 ([13]; CAKI-1): 13.5 µM
inhibition at 10 µM ([13]; CAKI-1, read-out: percent growth inhibition): 42.3%
GI50 [14]: 12.3 µM
inhibition at 10 µM [14, 39]: 94.4%
GI50 [15]: 11.2 µM
GI50 ([16]; MCF7): 2.15 µM
inhibition at 10 µM ([16]; MCF7, read-out: percent growth inhibition): 163%
GI50 [17]: 3.75 µM
GI50 [18]: 9.17 µM
inhibition at 10 µM [18, 39]: 59.1%
GI50 ([19]; read-out: Full panel GI50 mean): 9.96 µM
GI50 ([19]; read-out: Full panel MG-MID GI50): 9.96 µM
Full panel Mean GI % ([19]; mean over NCI-60 panel, single dose 10 µM): 86.06%
GI50 ([20]; read-out: GI50 MG-MID): 3.29 µM
GI50 ([20]; read-out: MG-MID GI50): 3.29 µM
GI50 ([21]; read-out: GI50 MG-MID): 13.6 µM
GI50 ([21]; read-out: MG-MID GI50): 13.6 µM
SI (Selectivity Index) ([21]; full panel MG-MID / NSCLC subpanel MG-MID): 0.73
GI50 ([22]; read-out: GI50 MG-MID): 6.42 µM
GI50 ([22]; read-out: MG-MID GI50): 6.42 µM
SI (Selectivity Index) ([22]; full panel MG-MID / Colon Cancer subpanel MG-MID): 1.55
GI50 ([23]; read-out: GI50 MG-MID): 12.2 µM
GI50 ([23]; read-out: MG-MID GI50): 12.2 µM
SI (Selectivity Index) ([23]; full panel MG-MID / CNS Cancer subpanel MG-MID): 0.82
GI50 ([24]; read-out: GI50 MG-MID): 10.6 µM
GI50 ([24]; read-out: MG-MID GI50): 10.6 µM
SI (Selectivity Index) ([24]; full panel MG-MID / Melanoma subpanel MG-MID): 0.94
GI50 ([25]; read-out: GI50 MG-MID): 11.2 µM
GI50 ([25]; read-out: MG-MID GI50): 11.2 µM
SI (Selectivity Index) ([25]; full panel MG-MID / Ovarian Cancer subpanel MG-MID): 0.89
GI50 ([26]; read-out: GI50 MG-MID): 13 µM
GI50 ([26]; read-out: MG-MID GI50): 13 µM
SI (Selectivity Index) ([26]; full panel MG-MID / Renal Cancer subpanel MG-MID): 0.77
GI50 ([27]; read-out: GI50 MG-MID): 12.2 µM
GI50 ([27]; read-out: MG-MID GI50): 12.2 µM
SI (Selectivity Index) ([27]; full panel MG-MID / Prostatic Cancer subpanel MG-MID): 0.82
GI50 ([28]; read-out: GI50 MG-MID): 7.2 µM
GI50 ([28]; read-out: MG-MID GI50): 7.2 µM
SI (Selectivity Index) ([28]; full panel MG-MID / Breast Cancer subpanel MG-MID): 1.38
GI50 at 48 h [29]: > 100 µM
Safety index [30]: >1
IC50 [31]: 0.37 ± 0.012 µM
% Early apoptotic cells (LR) [32]: 0.05 ± 0.001%
% Late apoptotic cells (UL) [32]: 94.74 ± 8.9%
% Necrotic cells (UR) [32]: 2.71 ± 0.33%
% Viable cells (LL) [32]: 2.50 ± 0.12%
% G0-G1 [33]: 30.02 ± 7.1%
% G2M [33]: 10.42 ± 1.7%
% S [33]: 10.55 ± 3.5%
% SubG0-G1 [33]: 49.01 ± 7.2%
caspase-3 protein level [34]: 58.44 fold
Bax protein level [35]: 3.14 fold
Caspase-3 gene expression fold change [36]: 2.28 ± 0.14 fold
Bax gene expression fold change ([37]; IC50 of compound, vs 0.1% DMSO, 2^-ΔΔct): 5 fold and 5.00 ± 1.1 fold
Bax/Bcl-2 ratio ([37]; ratio of gene expression fold changes): 4.5
TNF-α gene expression fold change [38]: 372 fold and 372.22 ± 10.8 fold
